The source made the active and inactive calls.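 The calls were made as follows: active = fitted half-maximal concentration no higher than twice the top valid tested dose, with signal falling; inconclusive = flat curve with 30 to 70% inhibition, or poor fit; inactive = the rest.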
target: Golgi-associated PDZ and coiled-coil motif-containing protein (Homo sapiens) (UniProt Q9HD26); assay: CAL PDZ domain peptide-binding inhibitors, dose response, biochemical, fluorescence polarization, untagged CAL PDZ, cherry-pick, set 2 (AID 602254); details: Purified CAL PDZ, TMR peptide fluorescence polarization;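 also: potency of inhibitors that displace the labelled peptide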

| AC50 | Compound |
| --- | --- |
| > 120 µM (inactive) | CN(C)S(=O)(=O)c1cccc(COc2ncnc3c(Cl)cc(Cl)cc23)c1 |
| > 120 µM (inactive) | Cc1ccc2nc(COC(=O)c3ccc(Cl)nc3)cc(=O)n2c1 |
| > 120 µM (inactive) | Cc1cc(NC(=O)c2c(Br)c(C)nn2C)no1 |
| > 120 µM (inactive) | Cc1cc(F)ccc1NC(=O)c1cc(S(=O)(=O)N2CCCC2)cn1C |
| > 120 µM (inactive) | Cc1ccc(C)c(NC(=O)CN(C)C(=O)c2ccc3c(=O)n4c(nc3c2)CCC4)c1 |
| > 120 µM (inactive) | CCN(CC)CCn1c(=S)[nH]c2ccc(Br)cc2c1=O |
| > 120 µM (inactive) | OCCC1CN(Cc2ccc3nsnc3c2)CCN1C1CCCCC1 (centres undefined) |
| > 120 µM (inactive) | COc1ccc(CC2CCOC2=O)cc1 (centres undefined) |
| > 120 µM (inactive) | Cc1cc(NC(=O)c2ccc(C#N)cc2)n(-c2ccccn2)n1 |
| > 120 µM (inactive) | Cc1cccc(OCC(=O)OCC(=O)Nc2ccc(Cl)cn2)c1 |
| > 120 µM (inactive) | CCN(CC)c1ccc(N2C(=O)CSC2=S)cc1 |
| > 120 µM (inactive) | Cc1c(NS(=O)(=O)c2ccc(S(=O)(=O)c3ccccc3)s2)c(=O)n(-c2ccccc2)n1C |
| > 120 µM (inactive) | CN(Cc1ccc(Cl)s1)C(=O)CNC(=O)CNC(=O)c1ccc(Cl)cc1Cl |
| > 120 µM (inactive) | CC(=O)N1CCc2cc(S(=O)(=O)NC(C(=O)NCc3ccccc3)C(C)C)ccc21 (centres undefined) |
